Measurements taken from the CheMixHub viscosity set.
Values joined by “and” are separate entries in the source; they are usually repeats but may differ in a detail not shown here. Equal values may be shown once.

Experiment: xn = mol fraction of the nth substance listed

CC1CCCCC1 + CCCCCC
viscosity [mPa·s], 101 kPa
Details | 293.15 K | 298.15 K | 303.15 K | 308.15 K
x1 = 0.0401 | 0.3176 | 0.3005 | 0.2736 | –
x1 = 0.1041 | – | – | 0.3003 | –
x1 = 0.1042 | – | 0.334 | 0.318 | 0.301
x1 = 0.2002 | 0.3482 | 0.3336 | 0.3072 | –
x1 = 0.202 | – | – | 0.3216 | –
x1 = 0.2026 | – | 0.359 | 0.341 | 0.323
x1 = 0.2772 | 0.3681 | 0.3511 | 0.3256 | –
x1 = 0.3005 | – | – | 0.3476 | –
x1 = 0.301 | – | 0.373 | 0.354 | 0.335
x1 = 0.3562 | 0.3915 | 0.3713 | 0.3477 | –
x1 = 0.3972 | – | – | 0.375 | –
x1 = 0.4018 | – | 0.401 | 0.378 | 0.359
x1 = 0.4196 | 0.4131 | 0.3895 | 0.3654 | –
x1 = 0.5015 | – | – | 0.4074 | –
x1 = 0.5026 | – | 0.433 | 0.41 | 0.387
x1 = 0.5574 | – | – | 0.4286 | –
x1 = 0.5875 | 0.4812 | 0.4512 | 0.4227 | –
x1 = 0.6024 | – | 0.473 | 0.446 | 0.42
x1 = 0.6173 | – | – | 0.4495 | –
x1 = 0.6796 | 0.5261 | 0.49 | 0.46 | –
x1 = 0.7021 | – | 0.517 | 0.487 | 0.457
x1 = 0.7645 | 0.5729 | 0.5323 | 0.5001 | –
x1 = 0.8006 | – | – | 0.5303 | –
x1 = 0.8016 | – | 0.573 | 0.539 | 0.504
x1 = 0.8397 | 0.6187 | 0.5725 | 0.5388 | –
x1 = 0.9002 | – | – | 0.5837 | –
x1 = 0.9011 | – | 0.624 | 0.585 | 0.545
x1 = 0.9198 | 0.6688 | 0.6221 | 0.5865 | –

CC1CCCCC1 + CCCCCO
303.15 K, 101.33 kPa
Details | viscosity [mPa·s]
x1 = 0.0947 | 2.283
x1 = 0.2614 | 1.737
x1 = 0.42 | 1.289
x1 = 0.5783 | 0.968
x1 = 0.7422 | 0.777
x1 = 0.9027 | 0.663
x2 = 0.1011 | 0.7025
x2 = 0.2073 | 0.7951
x2 = 0.3017 | 0.8911
x2 = 0.4214 | 1.039
x2 = 0.4998 | 1.16
x2 = 0.5988 | 1.325
x2 = 0.7007 | 1.535
x2 = 0.8084 | 1.852
x2 = 0.9144 | 2.305

CNS(C)(=O)=O + CCO
303.15 K, 101.33 kPa
Details | viscosity [mPa·s]
x1 = 0.1006 | 1.105
x1 = 0.201 | 1.3
x1 = 0.2995 | 1.58
x1 = 0.3949 | 1.871
x1 = 0.4923 | 2.303
x1 = 0.5949 | 2.888
x1 = 0.6892 | 3.612
x1 = 0.7757 | 4.493
x1 = 0.8905 | 6.09

CCCC[n+]1ccn(C)c1.N#C[S-] + c1ccsc1
100 kPa
Details | viscosity [mPa·s]
298.15 K, x1 = 0.754 | 31.95
308.15 K, x1 = 0.857 | 28.75

CCCNCCC + CCCCO
viscosity [mPa·s]
Details | 303.15 K | 313.15 K
101 kPa, x1 = 0.01005 | 2.225 | –
101 kPa, x1 = 0.01919 | 2.196 | –
101 kPa, x1 = 0.03366 | 2.165 | –
101 kPa, x1 = 0.0409 | 2.145 | –
101 kPa, x1 = 0.04956 | 2.121 | –
101 kPa, x1 = 0.05853 | 2.098 | –
101 kPa, x1 = 0.07021 | 2.064 | –
101 kPa, x1 = 0.07906 | 2.04 | –
101 kPa, x1 = 0.09184 | 2.006 | –
101.33 kPa, x1 = 0.0954 | 2.038 | 1.621
101.33 kPa, x1 = 0.1904 | 1.797 | 1.426
101.33 kPa, x1 = 0.2859 | 1.567 | 1.252
101.33 kPa, x1 = 0.4163 | 1.299 | 1.031
101.33 kPa, x1 = 0.5205 | 1.106 | 0.8851
101.33 kPa, x1 = 0.615 | 0.9506 | 0.7697
101.33 kPa, x1 = 0.7107 | 0.8177 | 0.6675
101.33 kPa, x1 = 0.8108 | 0.6968 | 0.5735
101.33 kPa, x1 = 0.8924 | 0.6105 | 0.5037

CCCCCl + c1ccccc1
viscosity [mPa·s], 101 kPa
Details | 298.15 K | 308.15 K | 318.15 K | 323.15 K
x1 = 0.098 | 0.557 | 0.492 | 0.437 | 0.417
x1 = 0.153 | 0.542 | 0.481 | 0.428 | 0.404
x1 = 0.8 | 0.454 | – | – | 0.358

NCC(=O)NCC(=O)O + O
viscosity
Details | 293.15 K | 298.15 K | 303.15 K | 308.15 K | 313.15 K | 318.15 K | 323.15 K
100 kPa, x1 = 0.000887 | – | 0.9004 mPa·s | – | 0.7285 mPa·s | 0.6622 mPa·s | 0.6045 mPa·s | –
100 kPa, x1 = 0.00175 | – | 0.907 mPa·s | 0.8135 mPa·s | 0.7349 mPa·s | 0.6683 mPa·s | 0.6105 mPa·s | –
100 kPa, x1 = 0.002593 | – | 0.9129 mPa·s | 0.8194 mPa·s | 0.7408 mPa·s | 0.6742 mPa·s | 0.6162 mPa·s | –
100 kPa, x1 = 0.003411 | – | 0.9185 mPa·s | 0.8251 mPa·s | 0.7465 mPa·s | 0.6797 mPa·s | 0.6216 mPa·s | –
100 kPa, x1 = 0.004207 | – | 0.9239 mPa·s | 0.8307 mPa·s | 0.752 mPa·s | 0.685 mPa·s | 0.6269 mPa·s | –
100 kPa, x1 = 0.004983 | – | 0.9292 mPa·s | 0.836 mPa·s | 0.7573 mPa·s | 0.6904 mPa·s | 0.6322 mPa·s | –
100 kPa, x1 = 0.005739 | – | 0.9343 mPa·s | 0.8413 mPa·s | 0.7627 mPa·s | 0.6957 mPa·s | 0.6374 mPa·s | –
100 kPa, x1 = 0.006476 | – | 0.9394 mPa·s | 0.8465 mPa·s | 0.7679 mPa·s | 0.7006 mPa·s | 0.6425 mPa·s | –
101.3 kPa, x1 = 0.002 | 1.04 mPa·s and 1.04 mPa·s | – | 0.82 mPa·s and 0.82 mPa·s | – | 0.67 mPa·s and 0.67 mPa·s | – | 0.56 mPa·s and 0.56 mPa·s
101.3 kPa, x1 = 0.004 | 1.08 mPa·s and 1.08 mPa·s | – | 0.85 mPa·s and 0.85 mPa·s | – | 0.69 mPa·s and 0.69 mPa·s | – | 0.59 mPa·s and 0.59 mPa·s
101.3 kPa, x1 = 0.005 | 1.1 mPa·s and 1.1 mPa·s | – | 0.87 mPa·s and 0.87 mPa·s | – | 0.71 mPa·s and 0.71 mPa·s | – | 0.6 mPa·s and 0.6 mPa·s
101.3 kPa, x1 = 0.007 | 1.14 mPa·s and 1.14 mPa·s | – | 0.9 mPa·s and 0.9 mPa·s | – | 0.74 mPa·s and 0.74 mPa·s | – | 0.62 mPa·s and 0.62 mPa·s

O=C(O)/C=C\C(=O)O + O
viscosity [mPa·s], 101.32 kPa
Details | x1 = 0.0171 | x1 = 0.03648 | x1 = 0.06231 | x1 = 0.0943 | x1 = 0.145
298.15 K | 1.092 | 1.349 | 1.775 | 2.459 | –
313.15 K | 0.792 | 0.968 | 1.255 | 1.702 | 2.54

CC(C)O + CCCCO
298.15 K, 101 kPa
Details | viscosity [mPa·s]
x2 = 0.1026 | 2.057
x2 = 0.2012 | 2.105
x2 = 0.302 | 2.145
x2 = 0.4045 | 2.207
x2 = 0.5086 | 2.269
x2 = 0.6002 | 2.327
x2 = 0.734 | 2.402
x2 = 0.7964 | 2.437
x2 = 0.9021 | 2.506

Cc1cccc([N+](=O)[O-])c1 + CCCCCC
303.15 K, 101.33 kPa
Details | viscosity [mPa·s]
x1 = 0.199 | 0.38
x1 = 0.416 | 0.58
x1 = 0.591 | 0.77
x1 = 0.802 | 1.11

CCCCCCCCCCCCCCCCCCCCCCCC + CCCCCCCCCC
Details | viscosity [mPa·s]
313.2 K, 101.3 kPa, x2 = 0.8 | 1.48

[Li+].[O-][Cl+3]([O-])([O-])[O-] + CC#N
viscosity [mPa·s], 101 kPa
Details | x1 = 0.0128 | x1 = 0.0255 | x1 = 0.0301 | x1 = 0.536
296.15 K | 0.444 | – | – | 0.66
297.15 K | – | 0.53 | – | –
313.15 K | 0.399 | 0.473 | 0.958 | 0.628

[Li+].[O-][Cl+3]([O-])([O-])[O-] + C1CCOC1
101 kPa, x1 = 0.07
Details | viscosity [mPa·s]
303.15 K | 0.85
308.15 K | 0.81
313.15 K | 0.78
318.15 K | 0.74
323.15 K | 0.71
